Reference: patent US12202821B2, “Herbicidal compounds” (SYNGENTA CROP PROTECTION AG, priority 2019, dated 2025)

Assays:
Format in all cases: in vivo
AMAPA [1] = assay: Pre-emergence biological efficacy; conditions: 312 h, evaluated after 13 days, read-out: damage to plant (100=total damage to plant; 0=no damage to plant), AMAPA
Description: (§1) Pre-Emergence Biological Efficacy
(§2) Seeds of weeds and/or crops were sown in standard soil in pots. After cultivation for one day under controlled conditions in a glasshouse (at 24/16° C., day/night; 14 hours light; 65% humidity), the plants were sprayed with an aqueous spray solution derived from the formulation of the technical active ingredient in acetone/water (50:50) solution containing 0.5% Tween 20 (polyoxyethylene sorbitan monolaurate, CAS RN 9005-64-5) to give the desired final dose of test compound.
(§3) The test plants were then grown under controlled conditions in the glasshouse (at 24/16° C., day/night; 14 hours light; 65% humidity) and watered twice daily. After 13 days the test was evaluated (100=total damage to plant; 0=no damage to plant).

ECHCG [2] = assay: Pre-emergence biological efficacy; conditions: Echinochloa crus-galli, 312 h, evaluated after 13 days, read-out: damage to plant (100=total damage to plant; 0=no damage to plant), ECHCG
Description: as §1, §2, §3

EPHHL [3] = assay: Pre-emergence biological efficacy; conditions: 312 h, evaluated after 13 days, read-out: damage to plant (100=total damage to plant; 0=no damage to plant), EPHHL
Description: as §1, §2, §3

IPOHE [4] = assay: Pre-emergence biological efficacy; conditions: Ipomoea hederacea, 312 h, evaluated after 13 days, read-out: damage to plant (100=total damage to plant; 0=no damage to plant), IPOHE
Description: as §1, §2, §3

LOLPE [5] = assay: Pre-emergence biological efficacy; conditions: 312 h, evaluated after 13 days, read-out: damage to plant (100=total damage to plant; 0=no damage to plant), LOLPE
Description: as §1, §2, §3

SETFA [6] = assay: Pre-emergence biological efficacy; conditions: Setaria faberi, 312 h, evaluated after 13 days, read-out: damage to plant (100=total damage to plant; 0=no damage to plant), SETFA
Description: as §1, §2, §3

AMAPA [7] = assay: Post-emergence biological efficacy; conditions: 312 h, evaluated after 13 days, read-out: damage to plant (100=total damage to plant; 0=no damage to plant), AMAPA
Description: (§4) Post-Emergence Biological Efficacy
as §2, with “8 days” for “one day”
(§5) The test plants were then grown on under controlled conditions in a glasshouse (at 24/16° C., day/night; 14 hours light; 65% humidity) and watered twice daily. After 13 days the test was evaluated (100=total damage to plant; 0=no damage to plant).

CHEAL = assay: Post-emergence biological efficacy; conditions: Chenopodium album, 312 h, evaluated after 13 days, read-out: damage to plant (100=total damage to plant; 0=no damage to plant), CHEAL
Description: as §4
as §2, with “8 days” for “one day”
as §5

DIGSA = assay: Post-emergence biological efficacy; conditions: Digitaria sanguinalis, 312 h, evaluated after 13 days, read-out: damage to plant (100=total damage to plant; 0=no damage to plant), DIGSA
Description: as §4
as §2, with “8 days” for “one day”
as §5

ECHCG [8] = assay: Post-emergence biological efficacy; conditions: Echinochloa crus-galli, 312 h, evaluated after 13 days, read-out: damage to plant (100=total damage to plant; 0=no damage to plant), ECHCG
Description: as §4
as §2, with “8 days” for “one day”
as §5

ELEIN = assay: Post-emergence biological efficacy; conditions: 312 h, evaluated after 13 days, read-out: damage to plant (100=total damage to plant; 0=no damage to plant), ELEIN
Description: as §4
as §2, with “8 days” for “one day”
as §5

EPHHL [9] = assay: Post-emergence biological efficacy; conditions: 312 h, evaluated after 13 days, read-out: damage to plant (100=total damage to plant; 0=no damage to plant), EPHHL
Description: as §4
as §2, with “8 days” for “one day”
as §5

IPOHE [10] = assay: Post-emergence biological efficacy; conditions: Ipomoea hederacea, 312 h, evaluated after 13 days, read-out: damage to plant (100=total damage to plant; 0=no damage to plant), IPOHE
Description: as §4
as §2, with “8 days” for “one day”
as §5

LOLPE [11] = assay: Post-emergence biological efficacy; conditions: 312 h, evaluated after 13 days, read-out: damage to plant (100=total damage to plant; 0=no damage to plant), LOLPE
Description: as §4
as §2, with “8 days” for “one day”
as §5

SETFA [12] = assay: Post-emergence biological efficacy; conditions: Setaria faberi, 312 h, evaluated after 13 days, read-out: damage to plant (100=total damage to plant; 0=no damage to plant), SETFA
Description: as §4
as §2, with “8 days” for “one day”
as §5

Row | Compound | pest or weed control at 250 g/ha (AMAPA [1]) | pest or weed control at 250 g/ha (ECHCG [2]) | pest or weed control at 250 g/ha (EPHHL [3]) | pest or weed control at 250 g/ha (IPOHE [4]) | pest or weed control at 250 g/ha (LOLPE [5]) | pest or weed control at 250 g/ha (SETFA [6]) | pest or weed control at 250 g/ha (AMAPA [7]) | pest or weed control at 250 g/ha (CHEAL) | pest or weed control at 250 g/ha (DIGSA) | pest or weed control at 250 g/ha (ECHCG [8]) | pest or weed control at 250 g/ha (ELEIN) | pest or weed control at 250 g/ha (EPHHL [9]) | pest or weed control at 250 g/ha (IPOHE [10]) | pest or weed control at 250 g/ha (LOLPE [11]) | pest or weed control at 250 g/ha (SETFA [12])
1 | CN(C)S(=O)(=O)NC(=O)C1(C)CC(c2cc(-n3c(=O)n(C)c(=S)n(C)c3=O)c(F)cc2Cl)=NO1 (stereo not drawn) [Compound 305, 3-[2-Chloro-5-(3,5-dimethyl-2,6-dioxo-4-thioxo-1,3,5-triazinan-1-yl)-4-fluoro-phenyl]-N-(dimethylsulfamoyl)-5-methyl-4H-isoxazole-5-carboxamide] | 100% | 30% | 60% | 80% | 30% | 90% | 100% | 100% | 100% | 100% | 100% | 100% | 100% | 100% | 100%
2 | Cn1c(=S)n(C)c(=O)n(-c2cc(C3=NOC(C)(C(N)=O)C3)c(Cl)cc2F)c1=O (stereo not drawn) [Compound 308, 3-[2-chloro-5-(3,5-dimethyl-2,6-dioxo-4-thioxo-1,3,5-triazinan-1-yl)-4-fluoro-phenyl]-5-methyl-4H-isoxazole-5-carboxamide] | 100% | 10% | 80% | 50% | 60% | 90% | 100% | 100% | 100% | 100% | 100% | 90% | 100% | 90% | 100%
3 | COC(=O)C1(OC)CC(c2cc(-n3c(=O)n(C)c(=S)n(C)c3=O)c(F)cc2Cl)=NO1 (stereo not drawn) [Compound 311, Methyl 3-[2-chloro-5-(3,5-dimethyl-2,6-dioxo-4-thioxo-1,3,5-triazinan-1-yl)-4-fluoro-phenyl]-5-methoxy-4H-isoxazole-5-carboxylate] | 100% | 10% | 50% | 70% | 10% | 90% | 90% | 90% | 80% | 90% | 90% | 90% | 90% | 50% | 100%
